System: demyelinated cerebellar brain slices
Assay: Ex vivo (re)myelination in lysolecithin-demyelinated cerebellar brain slices
Assay type: cell-based, mouse
Conditions: 14-days treatment, vs vehicle
Description: FIG. 6: Inhibition of PDE4 by roflumilast induces (re)myelination in demyelinated brain slices. Mouse brain slices ([…]) were trimmed from the cerebellum of p10 C57bl6 pups. After 1 week in culture, brain slices were demyelinated using lysolecithin (16 h) and subsequently treated for 14 days with 5 μM roflumilast or vehicle (0.1% DMSO). Treatment was repeated every 2 days with a 60% medium replenishment. Brain slices were fixated using 4% paraformaldehyde and stained for MBP, neurofilament and counterstained with the nuclear DAPI dye. Three slices per animal were quantified for % myelinated axons (n:2/group).
FIG. 7: Inhibition of PDE4D by gebr32a induces (re)myelination in demyelinated brain slices. Mouse brain slices (370 μM) were trimmed from the cerebellum of p10 C57bl6 pups. […] Three slices per animal were quantified for % myelinated axons (n:2/group). […]
Organotypic cerebellar brain slices were fixed in 4% paraformaldehyde at room temperature for 40 minutes and incubated with primary antibodies diluted in blocking buffer (5% bovine serum albumin (BSA) and 0.05% Tween 20 in PBS) for 4 h at room temperature. […] Quantification was done using Fiji ImageJ by counting the percentage of myelinated axons crossing a predefined cross-sectional path.

SMILES: OC(CN1CCOCC1)Cn1ccc(-c2ccc(OC(F)F)c(OC3CCCC3)c2)n1 (centres unmarked) [Gebr32a]
- MBP alignment with neurofilament (% myelinated axons) (0.5 μM): four-fold increase

SMILES: O=C(Nc1c(Cl)cncc1Cl)c1ccc(OC(F)F)c(OCC2CC2)c1 [roflumilast]
- MBP alignment with neurofilament (% myelinated axons) (5 μM): four-fold increase

From patent US20210145838A1, “SELECTIVE PDE4D INHIBITORS AGAINST DEMYELINATING DISEASES” (Universiteit Hasselt, priority 2018, published 2021)
